test system: human HL60 cells; test: SWATH-MS proteomics, differential protein representation, akirin2 KO vs WT HL60 cells; type: cell-based; details: KO vs WT HL60 cells; sheet "Under-represented in KO"
Protocol: Total proteins were extracted from WT and akirin2 KO HL60 cells using the AllPrep DNA/RNA/Protein Mini Kit (Qiagen) and protein concentration was determined using the BCA Protein Assay with BSA (Sigma–Aldrich) as standard. Protein extracts (150 µg per sample, n=3 biological replicates) from each WT and KO cells were trypsin digested using the FASP Protein Digestion Kit (Expedeon Ltd., Abcam, Cambridge, U.K.) and sequencing grade trypsin (Promega, Madison, WI, U.S.A.) following manufacturer’s recommendations. The resulting peptides were finally desalted on to OMIX Pipette tips C18 (Agilent Technologies, Santa Clara, CA, U.S.A.), dried down and stored at −20 °C until mass spectrometry analysis. […] Three micrograms of each protein digest from the three biological replicates of WT and akirin2 KO HL60 cells were used for the generation of the reference spectral ion library as part of the SWATH-MS analysis.
Peptides were eluted in a 120-min gradient from 5 to 30% solvent B in solvent A followed by 15-min gradient from 30 to 60% solvent B in solvent A (solvent A: 0.1% formic acid in water, solvent B: 0.1% formic acid in acetonitrile) and directly injected into the mass spectrometer for analysis. For IDA experiments, the mass spectrometer was set to scanning full spectra (350–1400 m/z) using 250 ms accumulation time per spectrum, followed by up to 50 MS/MS scans (100–1500 m/z). Candidate ions with a charge state between +2 and +5 counts per second above a minimum threshold of 100 were isolated for fragmentation. One MS/MS spectrum was collected for 100 ms, before adding those precursor ions to the exclusion list for 15 s (mass spectrometer operated by Analyst TF 1.6, AB Sciex). Dynamic background subtraction was turned off. MS/MS analyses were recorded in high-sensitivity mode with rolling collision energy on and a collision energy spread of 5. For SWATH quantitative analysis, six independent samples (three replicates from WT and akirin2 KO HL60 cells, 5 µg each) were subjected to the cyclic DIA of mass spectra using the SWATH variable windows calculator (V 1.0, AB Sciex) and the SWATH acquisition method editor (AB Sciex), similar to established methods. […] For these experiments, a 50-ms survey scan (350–1400 m/z) was acquired at the beginning of each cycle, and SWATH–MS/MS spectra were collected from 100–1500 m/z for 70 ms at high-sensitivity mode, resulting in a cycle time of 3.6 s. Collision energy for each window was determined according to the calculation for a charge +2 ion-centered upon the window with a collision energy spread of 15. To create a spectral library of all the detectable peptides in the samples, the IDA MS raw files were combined and subjected to database search in unison using ProteinPilot software v. 5.0.1 (AB Sciex) with the Paragon algorithm. […] The detected protein threshold was set at 0.05. An independent false discovery rate (FDR) analysis, using the target–decoy approach provided by Protein Pilot (AB Sciex; https://sciex.com/products/software/proteinpilot-software), was used to assess the quality of identifications. Positive identifications were considered when identified proteins reached 1% of global FDR. […] Global normalization was performed according to the Total Area Sums (TAS) of all detected proteins in the samples. […] Heatmaps were prepared using the Heatmapper (http://www.heatmapper.ca/expression/) with average linkage and Euclidean distance measurement method.

Substance	Fold Change	Log (Fold Change)
sp¦O94804¦STK10_HUMAN	0.5498	-0.2598
sp¦P09622¦DLDH_HUMAN	0.516	-0.2873

same assay, conditions: KO vs WT; akirin2 KO vs WT HL60 cells; sheet "Under-represented in KO"

Substance	Fold Change	Log (Fold Change)
sp¦O00264¦PGRC1_HUMAN	0.6168	-0.2099

same assay, conditions: Over-represented in KO; KO vs WT HL60 cells

Substance	Fold Change	Log (Fold Change)
sp¦P04406¦G3P_HUMAN	1.369	0.1364
sp¦P07237¦PDIA1_HUMAN	1.346	0.1292
sp¦P23284¦PPIB_HUMAN	1.275	0.1054
sp¦P25786¦PSA1_HUMAN	1.271	0.1042

same assay, conditions: SWATH-MS, akirin2 KO vs WT HL60 cells, under-represented in KO

Substance	Fold Change	Log (Fold Change)
sp¦O00148¦DX39A_HUMAN	0.7315	-0.1358
sp¦O43813¦LANC1_HUMAN	0.7366	-0.1328
sp¦O95758¦PTBP3_HUMAN	0.7281	-0.1378
sp¦P12268¦IMDH2_HUMAN	0.7306	-0.1363

same assay, conditions: SWATH-MS, akirin2 KO vs WT HL60 cells; over-represented in KO

Substance	Fold Change	Log (Fold Change)
CD44 antigen	2.131	0.3287
Cathepsin D	2.358	0.3725
Chitinase-3-like protein 1	1.904	0.2797
Deoxynucleoside triphosphate triphosphohydrolase SAMHD1	1.851	0.2674
Eosinophil peroxidase	5.162	0.7128
Galectin-1	1.707	0.2322
Galectin-10	4.451	0.6485
Heat shock 70 kDa protein 1B	1.868	0.2713
Transferrin receptor protein 1	3.145	0.4976
Vimentin	3.958	0.5975
sp¦O75874¦IDHC_HUMAN	1.681	0.2255
sp¦P11142¦HSP7C_HUMAN	1.579	0.1983
sp¦P14618¦KPYM_HUMAN	1.553	0.1913

same assay, conditions: SWATH-MS, akirin2 KO vs WT HL60 cells; sheet "Under-represented in KO"

Substance	Fold Change	Log (Fold Change)
sp¦O43681¦GET3_HUMAN	0.7665	-0.1155
sp¦P0CG38¦POTEI_HUMAN	0.7517	-0.1239
sp¦P10155¦RO60_HUMAN	0.7678	-0.1147

same assay, conditions: akirin2 KO vs WT HL60 cells; sheet "Over-represented in KO"

Substance	Fold Change	Log (Fold Change)
sp¦E9PAV3¦NACAM_HUMAN	1.243	0.09445
sp¦E9PRG8¦CK098_HUMAN	1.224	0.0879
sp¦O00231¦PSD11_HUMAN	1.117	0.04806
sp¦O14579¦COPE_HUMAN	1.2285	0.08937
sp¦O43447¦PPIH_HUMAN	1.22	0.08634
sp¦P08238¦HS90B_HUMAN	1.209	0.08231
sp¦P13861¦KAP2_HUMAN	1.201	0.07946
sp¦P15531¦NDKA_HUMAN	1.204	0.08072

same assay, conditions: akirin2 KO vs WT HL60 cells; sheet "Under-represented in KO"

Substance	Fold Change	Log (Fold Change)
sp¦O43148¦MCES_HUMAN	0.671	-0.1733
sp¦P00367¦DHE3_HUMAN	0.6801	-0.1674
sp¦P02792¦FRIL_HUMAN	0.2798	-0.5531
sp¦P05556¦ITB1_HUMAN	0.257	-0.5901
sp¦P08621¦RU17_HUMAN	0.6829	-0.1657
sp¦P12270¦TPR_HUMAN	0.6414	-0.1929
